In publication PMC6715681, “A high-throughput screen to identify novel synthetic lethal compounds for the treatment of E-cadherin-deficient cells” (Scientific Reports, 2019):

Legend:
MCF10A CDH1^−/− cells [1] = test: 11-point dose-response screen, high-content imaging (HCI) of Hoechst 33342 nuclei; type: cell-based, human; settings: 11-point screen; for EC50: Homo sapiens, MCF-10A, HCI
Procedure: (§1) The 11-point dose-response screen evaluated a concentration range from 0.02 µM to 20 µM for both isogenic cell lines in duplicate biological replicates (Fig. 4). One limitation to metabolism-based cellular assays is that a change in read out (fluorescence, luminescence or absorbance) may not necessarily be caused by cell death and could instead result from a cessation of proliferation due to senescence or inhibited mitochondrial respiration. For this reason, a direct measurement of cell counts using cellular imaging of nuclei stained with Hoechst 33342 was also included at the 11-point screening stage. For the CTB 11-point screen all plates had acceptable Z’ values above 0.4, with the second biological replicate having 70% above 0.6 (Fig. 4A). The Z’ values for the high-content imaging (HCI) 11-point screen plates were above 0.4 for MCF10A WT, except one plate from biological replicate two with 0.396 (Fig. 4B). However, for MCF10A CDH1^−/− HCI data, only four plates were above a Z’ of 0.4 and the mean Z’ was 0.32 compared to a mean of 0.51 for MCF10A WT. A further quality metric known as the strictly standardized mean difference (SSMD)[40] is a less conservative approach for QC and a cut-off of >3 is generally used. The mean SSMD value was 7.04 for MCF10A WT and 5.27 for MCF10A CDH1^−/− plates and indicates the MCF10A CDH1^−/− HCI data was acceptable[41]. There was a good correlation between the top hits from the HCI and CTB 11-point screening with an overlap of 31 / 40 for the top 40 compounds selected from the eventual hit selection strategies.
(§2) A direct measurement of cell counts using cellular imaging of nuclei was also included at the 11-point screening stage. Plates were fixed, washed and stained using an ELx405 Select deep well washer (BioTek). Media was first aspirated leaving 10 μL/well, then 4% w/v PFA was added and plates left for 15 minutes at RT. Plates were then washed twice with PBS-T, before aspirating all permeabilization buffer and adding Hoechst 33342 (1 μg/mL final) in PBS. Plates were then stored in the dark at 4 °C, until being imaged on a BD Pathway 855. Two 10x images per well were taken and cell counts enumerated using CellProfiler[48].

MCF10A WT cells [2] = test: 11-point dose-response screen, cell titre blue (CTB) viability; type: cell-based, human; settings: Homo sapiens, MCF-10A, 11-point screen; for EC50: CTB, read-out: MCF10A WT CTB EC50
Procedure: as §1
MCF10A WT and MCF10A CDH1^−/− cells were seeded into Corning black walled, clear bottom 384-well plates (assay plates) using a multidrop 384 reagent dispenser (Thermo Fisher Scientific) and a total volume of 50 μL per well.
As we have shown MCF10A CDH1^−/− cells have a prolonged lag to log phase growth of around 24 hours, in order to achieve a similar confluence at 72 hours post seeding MCF10A WT and MCF10A CDH1^−/− cell lines were seeded at 600 cells/well and 800 cells/well, respectively. Following seeding, plates were left for one hour at RT without stacking[46] and then centrifuged at 500 × g (RCF) for one minute. Plates were then transferred to an incubator at 37 °C and 5% CO2. At 24 hours post seeding, the MiniTrak robotic liquid handling system (Perkin Elmer) was used to transfer 352 compounds per 384-well library plate to the first 22 columns of a 384-well assay plate containing cells to achieve a 10 μM final compound concentration for the pilot, primary and single-point confirmation screens. For the 11-point dose-response screen, compounds were added to columns 1–22, but excluding edge rows A and P of the library plate to reduce edge-effects (Supplementary Fig. 2). The controls of DMSO (0.2% v/v), doxorubicin (EC80) and entinostat (EC50) were added into columns 23–24 of each assay plate (Supplementary Table 1). Cell titre blue[47] was made in-house in sterile PBS from 597 μM resazurin, 78 μM methylene blue, 1 mM potassium hexacyanoferrate (III) and 1 mM potassium hexacyanoferrate (II) trihydrate. At 69 hours post seeding, 16.7% v/v CTB was added to plates and they were incubated at 37 °C for 3 hours (Supplementary Fig. 1). At 72 hours post seeding, plates were removed from the incubator and left for 30 minutes at RT to equalise the temperature across all wells of the plates and reduce fluorescence-based edge effects before reading on an EnVision (PerkinElmer) at 550 nm excitation and 590 nm emission to quantify cell viability.
Supplementary Table 1. Killing control and SL control effective concentrations.
Doxorubicin EC80 0.3 µM 0.4 µM
MCF10A WT cells were seeded at 600/well and MCF10A CDH1-/- cells at 800/well in 384-well plates. Drugs
were added at 24 hours post seeding and CTB was used as an end-point assay. Concentrations were normalized

MCF10A WT cells [3] = test: xCELLigence real-time impedance assay (cell proliferation index); type: cell-based, human
Procedure: (§3) The xCELLigence real-time system quantifies electrical impedance as a measurement of cell viability which is expressed as the cell proliferation index. […] This was due to drug effects and briefly removing plates from the incubator for the addition of compounds and controls. Despite a slower adhesion time for MCF10A CDH1^−/−, consistent with our previous finding[3] the DMSO control treated cells had similar slopes of 0.17 and 0.15 for MCF10A WT and MCF10A CDH1^−/−, respectively.
(§4) Figure 10 Real-time xCELLigence data for lead compounds 8 and 11. (A) Timeline for the real-time cellular assay. Plates were seeded 4,000 cells/well as described in the Methods. (B,C) Data shown is a representative experiment of two biological replicates, performed in 96-well xCELLigence E-plates. Error bars are SD. Measurements were taken every 15 minutes. The cell proliferation index was calculated using the RTCA software. (B) Cells were treated with SLEC-8. (C) Cells were treated with SLEC-11.
(§5) Cells were seeded into each well of Corning’s black walled, clear bottom 96-well plates with a total volume of 100 μL per well. Edge wells were excluded. Both isogenic cell lines were seeded into the same plate to mitigate plate-to-plate variation. Plates for real-time analysis were transferred to the xCELLigence platform (ACEA Biosciences, USA) or the IncuCyte FLR imaging system (Essen BioScience, USA) as previously described.

MCF10A CDH1^−/− cells [4] = test: as above; type: cell-based, human; settings: for SL differential between the two cell lines (in words): xCELLigence real-time assay, SLEC-8 at 10 μM, SLEC-11 at 20 μM
Procedure: as §3, §4, §5

MCF10A WT cells [5] = test: Medium-throughput validation in 96-well plates, Hoechst-33342 nuclei counts (CellProfiler); type: cell-based; settings: Homo sapiens, MCF-10A, 96-well validation, at least five concentration points
Procedure: as §5
Seventy-two hours post seeding (or 48 hours post compound addition), plates were assayed for cell viability using a one-step cocktail of PFA (0.25% v/v), saponin (0.075% w/v) and Hoechst 33342 (1 μg/ml final) as described previously. CellProfiler was used to enumerate cell counts as previously described.

MCF10A WT cells [6] = test: 11-point dose-response screen, high-content imaging (HCI) of Hoechst 33342 nuclei; type: cell-based; settings: Homo sapiens, MCF-10A, 11-point screen
Procedure: as §1, §2

| Structure (SMILES) | EC50 (MCF10A CDH1^−/− cells [1]) | EC50 (MCF10A WT cells [2]) | activity at 20 µM (MCF10A WT cells [2]; viability of WT cells at highest concentration 20 μM, read-out: MCF10A WT POC at 20 μM) | Difference in cell proliferation index to DMSO in MCF10A WT cells (in words) (MCF10A WT cells [3]; 20 μM, 62 hours post seeding) | SL differential between the two cell lines (in words) (MCF10A CDH1^−/− cells [4]) | Difference in cell proliferation index between compound and DMSO (maximum) (MCF10A CDH1^−/− cells [4]; xCELLigence, 20 μM, 62 hours post seeding) | EC50 (MCF10A WT cells [5]) | EC50 (MCF10A WT cells [6]) | EC50 ratio between MCF10A WT and MCF10A CDH1^−/− cells (MCF10A CDH1^−/− cells [1]; value corresponds to the HCI EC50s of Fig. 5) | Recovery of MCF10A WT cells (in words) (MCF10A WT cells [3]; 10 μM, by 60 hours post seeding) | Decrease in cell proliferation index compared to DMSO (MCF10A CDH1^−/− cells [4]; xCELLigence, 10 μM, 60 hours post seeding) |
| --- | --- | --- | --- | --- | --- | --- | --- | --- | --- | --- | --- |
| COc1ccc2nc(C)cc(NCc3ccc(F)cc3)c2c1 [SLEC-11, N-(4-Fluorobenzyl)-6-methoxy-2-methylquinolin-4-amine] | 7.34 µM | > 20 µM | 100% | no difference | significant SL differential | 7.9 fold | 10.8 µM | 14.6 µM |  |  |  |
| CC(O)CNCc1ccc(OCc2ccc(Cl)cc2Cl)cc1 (stereo not shown) [SLEC-8] | 2.02 µM | 17.5 µM |  |  | significant SL differential |  | 12.4 µM | 10.2 µM | 5.03 fold change | able to fully recover | 2.7 fold |
